Data set [1] in a line: UTs concentration and renal uptake ratio detection in WT and KO rats. The data set is classed as in vivo, rat. The settings on record: for plasma concentration of endogenous UT, KO compared with WT rats / renal uptake ratio of endogenous UT, KO compared with WT rats: 4W and/or 7W rats, n = 7; for urine concentration of endogenous UT, KO compared with WT rats: 12-h urine, 4W and 7W rats. How it is done:
We collected blood, 12-h urine and kidney tissue samples of 4W and 7W WT and KO rats. The concentrations of UTs were measured by the liquid chromatography-tandem mass spectrometry (LC-MS/MS), which consisted of an Agilent 1260 liquid chromatography and a 6460 triple-quadrupole mass spectrometer operated in the electrospray ionization mode (Agilent Technologies, Santa Clara, CA, USA). Chromatographic separations were performed on an Agilent ZORBAX RR StableBond C18 analytical guard column (4.6 mm × 100 mm, 3.5 µm, Agilent Technologies, Santa Clara, CA, USA) at 30 °C. The MS parameters are shown in Supporting Information Table S1. […] The internal standard used in the positive ion mode was d3-creatinine, and in the negative ion mode was d5-hippuric acid.

For data set [2] the following is noted: furosemide ref 19; PAH ref 17, 52; cited from earlier work.
The nature of data set [3]: Urinary excretion after intravenous drug cocktail in WT and KO rats. The data set is classed as in vivo, rat. The settings on record: KO vs WT rats, i.v. cocktail, urine to 12 h.
Description: The blood samples were centrifuged at 8000× g for 10 min and the supernatant was stored at −80 °C for detection.
The mark [4] stands for this setting: Slc22a6/Slc22a8-/- rats, i.v. cocktail, mean ± S.D., n = 5.
The mark [5] stands for this setting: WT rats, i.v. cocktail, mean ± S.D., n = 5.

Counter-ions that a name gives are not always drawn. Like-named read-outs stand apart in the source and are kept apart here.

In the case of `Cn1cnc2c(ncn2[C@@H]2O[C@H](CO)[C@@H](O)[C@H]2O)c1=O` [1-methyl-inosine], in data set [1], the “plasma concentration of endogenous UT, KO compared with WT rats” value is recorded as “significantly increased”; the “renal uptake ratio of endogenous UT, KO compared with WT rats” value (“renal uptake ratio of endogenous UT, KO” for short) was “obviously decreased”; the “urine concentration of endogenous UT, KO compared with WT rats” value is “clearly decreased”.

Regarding `OC[C@H]1O[C@@H](Oc2c[nH]c3ccccc23)[C@H](O)[C@@H](O)[C@@H]1O` [3-indolyl-β-D-glucopyranoside], in data set [1], the “plasma concentration of endogenous UT, KO compared with WT rats” value is on record as “significantly increased” and the “renal uptake ratio of endogenous UT, KO” value is “obviously decreased”.

On to `O=S(=O)([O-])Oc1c[nH]c2ccccc12.[K+]` [3-indoxyl sulfate potassium salt], for which, in data set [1], the “plasma concentration of endogenous UT, KO compared with WT rats” value was “significantly increased” and the “renal uptake ratio of endogenous UT, KO” value is listed as “obviously decreased”.

In the case of `CCc1ccc(OS(=O)(=O)[O-])cc1.[K+]` [4-ethylphenyl sulfate], in data set [1], the “plasma concentration of endogenous UT, KO compared with WT rats” value is listed as “significantly increased”; the “renal uptake ratio of endogenous UT, KO” value was “obviously decreased”; the “urine concentration of endogenous UT, KO compared with WT rats” value is “increased”.

Consider `Nc1ccccc1C(=O)C[C@@H](N)C(=O)O` [D-kynurenine], for which, in data set [1], the “plasma concentration of endogenous UT, KO compared with WT rats” value was “significantly increased” and the “renal uptake ratio of endogenous UT, KO” value is reported as “obviously decreased”.

Turning to `CN(C)c1nc2c(ncn2[C@@H]2O[C@H](CO)[C@@H](O)[C@H]2O)c(=O)[nH]1` [N2,N2-dimethylguanosine], the “urine concentration of endogenous UT, KO compared with WT rats” value in data set [1] is listed as “clearly decreased”.

For the compound `N[C@@H](CCCCNCC(=O)O)C(=O)O` [N6-(carboxymethyl)-l-lysine], in data set [1], the “plasma concentration of endogenous UT, KO compared with WT rats” value was “significantly increased” and the “renal uptake ratio of endogenous UT, KO” value was “obviously decreased”.

Regarding `O=C(O)CNC(=O)C=Cc1ccccc1` [N-(cinnamoyl)glycine], in data set [1], the “plasma concentration of endogenous UT, KO compared with WT rats” value is “significantly lower” and the “renal uptake ratio of endogenous UT, KO” value is “much higher”.

For the compound `CC(=O)N[C@@H](CCCN=C(N)N)C(=O)O` [N-acetyl-L-arginine], in data set [1], the “plasma concentration of endogenous UT, KO compared with WT rats” value is recorded as “significantly increased” and the “renal uptake ratio of endogenous UT, KO” value was “obviously decreased”.

Regarding `CC(=O)Nc1ccn([C@@H]2O[C@H](CO)[C@@H](O)[C@H]2O)c(=O)n1` [N-acetylcytidine], in data set [1], the “plasma concentration of endogenous UT, KO compared with WT rats” value was “significantly increased” and the “renal uptake ratio of endogenous UT, KO” value is recorded as “obviously decreased”.

On to `Nc1ccc(C(=O)NCC(=O)O)cc1` [PAH, p-aminohippuric acid], for which, in data set [2], the “plasma protein binding rate” value is recorded as “low”.

Take `CN1CC(=O)NC1=N` [creatinine]: in data set [1], the “plasma concentration of endogenous UT, KO compared with WT rats” value is reported as “not significantly increased”.

Regarding `O=C(O)CNC(=O)c1ccccc1` [hippuric acid], in data set [1], the “plasma concentration of endogenous UT, KO compared with WT rats” value is reported as “significantly increased” and the “renal uptake ratio of endogenous UT, KO” value is “obviously decreased”.

`O=C(O)c1cc(=O)[nH]c(=O)[nH]1` [orotic acid]: in data set [1], the “plasma concentration of endogenous UT, KO compared with WT rats” value was “significantly increased” and the “renal uptake ratio of endogenous UT, KO” value is “obviously decreased”.

Turning to `Cc1ccc(O[C@@H]2O[C@H](C(=O)O)[C@@H](O)[C@H](O)[C@H]2O)cc1` [p-cresol glucuronide], in data set [1], the “plasma concentration of endogenous UT, KO compared with WT rats” value is “significantly lower” and the “renal uptake ratio of endogenous UT, KO” value is on record as “much higher”.

In the case of `Cc1ccc(OS(=O)(=O)O)cc1` [p-cresol sulfate], in data set [1], the “plasma concentration of endogenous UT, KO compared with WT rats” value was “significantly increased” and the “renal uptake ratio of endogenous UT, KO” value was “obviously decreased”.

As for `O=C(O)[C@H]1O[C@@H](Oc2ccccc2)[C@H](O)[C@@H](O)[C@@H]1O` [phenyl-β-D-glucuronide], in data set [1], the “plasma concentration of endogenous UT, KO compared with WT rats” value is “significantly lower” and the “renal uptake ratio of endogenous UT, KO” value was “much higher”.

Consider `O=c1[nH]c(=O)c2[nH]c(=O)[nH]c2[nH]1` [uric acid], for which, in data set [1], the “plasma concentration of endogenous UT, KO compared with WT rats” value is listed as “significantly increased” and the “renal uptake ratio of endogenous UT, KO” value is on record as “obviously decreased”.

In the case of inulin, the “plasma concentration, KO compared with WT rats” value (KO vs WT rats, i.v. cocktail) is given as “much higher”. For the same compound, the “AUC(0–12)” value (Slc22a6/Slc22a8-/- rats, i.v. cocktail (PAH 5 mg/kg, metformin 5 mg/kg, inulin 100 mg/kg), mean ± S.D., n = 5) was 14,208.11 ± 1433.67 ng/mL·min. Moreover, under setting [4], the “AUC(0–∞)” value is given as 16,434.89 ± 1696.15 ng/mL·min, the CL/F amounted to 6137.27 ± 639.31, the Cmax is recorded as 376.40 ± 36.13 ng/mL and the “MRT(0–12)” value stood at 35.34 ± 4.08 min. Besides, under setting [4], the “MRT(0–∞)” value stood at 37.99 ± 4.20 min, the V1/F was 185,957.58 ± 15,232.62 L/kg and the t1/2α amounted to 5.23 ± 2.51 min. Under setting [5], the CL/F worked out at 7427.26 ± 724.03, the Cmax was found to be 324.47 ± 33.41 ng/mL, the “MRT(0–12)” value amounted to 28.71 ± 5.54 min and the “MRT(0–∞)” value amounted to 34.03 ± 8.70 min. Moreover, under setting [5], the V1/F is 241,341.96 ± 36672.44 L/kg and the t1/2α is given as 14.75 ± 4.72 min. The “urinary excretion / urine concentration, KO compared with WT rats” value in data set [3] is reported as “significantly decreased”.

A word on the Cmax: it is the maximum level reached in the sampled fluid or tissue.

Source of the values: paper PMC9697873, “Construction and Evaluation of a Novel Organic Anion Transporter 1/3 CRISPR/Cas9 Double-Knockout Rat Model” (Pharmaceutics, 2022).
